Source: patent US11021435B2, “Serotonin receptor-targeting compounds and methods” (priority 2014, dated 2021)
“Also recorded” adds a separate entry of the source.

Tests used:
[1] = target: T1, adrenergic α1A receptor (Homo sapiens, UniProt P35348); experiment: Off-target binding affinity, adrenergic α1A
T1 construct: expressed in transfected cells; host or cells: HEK293, transient
T1 sequence (P35348 1-466): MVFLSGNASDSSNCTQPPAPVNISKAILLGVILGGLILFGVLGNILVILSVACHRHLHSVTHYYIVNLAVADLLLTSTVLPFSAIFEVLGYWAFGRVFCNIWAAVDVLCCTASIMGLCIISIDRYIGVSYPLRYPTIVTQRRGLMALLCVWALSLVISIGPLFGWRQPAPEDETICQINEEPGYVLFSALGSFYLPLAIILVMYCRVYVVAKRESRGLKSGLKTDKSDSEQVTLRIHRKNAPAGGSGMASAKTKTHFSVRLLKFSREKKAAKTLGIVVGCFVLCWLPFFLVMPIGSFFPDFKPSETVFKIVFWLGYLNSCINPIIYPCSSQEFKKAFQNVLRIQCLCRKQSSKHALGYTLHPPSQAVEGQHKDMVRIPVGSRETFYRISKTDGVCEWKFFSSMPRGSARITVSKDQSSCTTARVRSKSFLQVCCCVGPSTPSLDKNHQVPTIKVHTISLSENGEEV

[2] = target: T2, human 5-HT7 receptors (Homo sapiens, UniProt P34969); experiment: Functional assay, 5-HT7 Gs-cAMP signaling, relative to AS-19; format: cell-based; details: for Functional activity at 5-HT7, in words / EC50: Gs-cAMP signaling
T2 construct: expressed in transfected cells

[3] = target: T3, 5-HT1A receptors (Homo sapiens, UniProt P08908); experiment: Functional assay at 5-HT1A, relative to 5-CT; format: cell-based
T3 construct: expressed in transfected cells; host or cells: HEK293, transient
T3 sequence (P08908 1-422): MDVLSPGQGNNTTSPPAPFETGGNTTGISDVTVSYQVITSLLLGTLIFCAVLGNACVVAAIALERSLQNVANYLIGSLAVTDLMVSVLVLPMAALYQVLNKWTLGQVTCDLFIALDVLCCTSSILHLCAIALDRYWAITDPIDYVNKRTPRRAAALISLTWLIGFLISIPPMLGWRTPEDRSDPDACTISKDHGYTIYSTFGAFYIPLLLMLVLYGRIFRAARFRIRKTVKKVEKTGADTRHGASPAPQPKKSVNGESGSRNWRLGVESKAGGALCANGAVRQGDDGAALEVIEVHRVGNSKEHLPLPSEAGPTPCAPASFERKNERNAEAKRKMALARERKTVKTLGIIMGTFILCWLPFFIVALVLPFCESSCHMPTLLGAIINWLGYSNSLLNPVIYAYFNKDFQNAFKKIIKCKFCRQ

[4] = tested on: C58/J mice; experiment: Idiopathic stereotypic jumping in C58/J mice; format: in vivo; details: 1 and 3 mg/kg
[5] = tested on: C57BI/6J mice; experiment: MK-801-elicited stereotypic rotations in C57BI/6J mice; format: in vivo
Text: (§1) Regarding glutamate neurotransmission in stereotypy, the NMDA receptor antagonist, MK-801, characteristically elicits stereotypic rotations that appear to mimic monogenetic stereotypy observed in Fmr1 KO mice. Furthermore, mutations and autoantibodies of the NMDA glutamate receptor that decrease its function are causally linked to ASD, intellectual disabilities, and psychiatric symptoms in humans.

[6] = tested on: C57BI/6J mice; experiment: MK-801-elicited hyperlocomotion in C57BI/6J mice; format: in vivo; details: 5.6 mg/kg; MK-801 0.3 mg/kg; 30 min session
Text: Bar graphs show the mean±SEM.
as §1

[7] = tested on: C57BI/6J mice; experiment: d-amphetamine (AMP)-elicited hyperlocomotion in C57BI/6J mice; format: in vivo; details: 5.6 mg/kg; AMP 3 mg/kg; 30 min session
Text: as §1

[8] = tested on: C58/J and C57BI/6J mice; experiment: Locomotor behavior of the compound on its own (stereotypy assays); format: in vivo; details: 1, 3 and 5.6 mg/kg
Text: Data are from stereotypy assays using C58/J (left) and C57BI/6J (right) mice. […] Bar graphs show the mean±SEM.

[9] = tested on: C57BI/6J mice; experiment: Social interactions with vehicle-treated littermates and grooming; format: in vivo; details: 5.6 mg/kg
Text: Data are from C57BI/6J mice.
(§2) Of note, after behavioral testing was complete, blind scorers categorized mice into two groups based on number of rears and initiated social interactions, and the two groups differentiated vehicle from (+)-5-FPT-treated mice with 100% accuracy.

[10] = tested on: mice; experiment: Test for serotonin syndrome; format: in vivo; details: 5.6 mg/kg
Text: as §2

[11] = Plasma and brain concentrations after subcutaneous administration; format: in vivo, mice
[12] = target: 5-HT2A (Homo sapiens, UniProt P28223); experiment: Binding affinity, HEK293 cells transiently over-expressing human 5-HT2A; set-up: expressed in transfected cells; host or cells: HEK293, transient; details: for Ki: human, mean (SEM)
[13] = target: T3, 5-HT1A receptors; experiment: Binding affinity, HEK293 cells transiently over-expressing human 5-HT1A
[14] = % of maximal response relative to AS-19, mean (SEM)
[15] = mean (SEM) sessions, score/6 possible
[16] = 30 min after 3.0 mg/kg subcutaneous, mean (SEM)
[17] = 60 min after 3.0 mg/kg subcutaneous, mean (SEM)

T2 sequence (P34969 1-445 isoform P34969-2): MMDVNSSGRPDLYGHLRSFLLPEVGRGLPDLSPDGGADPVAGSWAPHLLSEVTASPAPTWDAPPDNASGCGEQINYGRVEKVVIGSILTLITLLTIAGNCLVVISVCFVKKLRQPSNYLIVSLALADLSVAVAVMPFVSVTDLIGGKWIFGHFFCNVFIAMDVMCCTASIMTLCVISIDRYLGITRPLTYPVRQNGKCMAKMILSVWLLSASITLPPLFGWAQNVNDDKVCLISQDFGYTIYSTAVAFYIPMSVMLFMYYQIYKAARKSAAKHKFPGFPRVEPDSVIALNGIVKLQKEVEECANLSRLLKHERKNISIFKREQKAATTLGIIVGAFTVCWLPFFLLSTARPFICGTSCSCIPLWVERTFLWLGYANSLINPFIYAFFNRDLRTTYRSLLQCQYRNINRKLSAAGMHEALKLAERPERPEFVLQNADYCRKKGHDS
Sequence of 5-HT2A (P28223 whole entry): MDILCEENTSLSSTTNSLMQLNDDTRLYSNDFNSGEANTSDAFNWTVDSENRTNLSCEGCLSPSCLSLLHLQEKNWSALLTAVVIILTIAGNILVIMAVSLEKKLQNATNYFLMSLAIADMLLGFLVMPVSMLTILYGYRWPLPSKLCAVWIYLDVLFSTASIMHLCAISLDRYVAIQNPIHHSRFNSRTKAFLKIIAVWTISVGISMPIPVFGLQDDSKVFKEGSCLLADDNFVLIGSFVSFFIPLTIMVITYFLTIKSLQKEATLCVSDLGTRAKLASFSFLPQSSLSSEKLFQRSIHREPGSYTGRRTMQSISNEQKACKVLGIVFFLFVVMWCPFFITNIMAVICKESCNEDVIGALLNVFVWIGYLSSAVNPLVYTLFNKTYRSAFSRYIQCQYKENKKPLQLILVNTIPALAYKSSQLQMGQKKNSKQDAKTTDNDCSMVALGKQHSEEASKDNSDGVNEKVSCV

CN(C)C1CCc2c(cccc2-c2ccccc2F)C1 (single isomer, unassigned; (+)) [(+)-5-FPT, 5-(2′-fluorophenyl)-N,N-dimethyl-1,2,3,4-tetrahydronaphthalen-2-amine]
Ki [1]: > 10 µM | Emax [2, 14]: 33% | Functional activity at 5-HT7, in words [2]: partial agonist | EC50 ([2]; mean (SEM)): 0.034 µM | Functional activity at 5-HT1A, in words [3]: partial agonist | Emax ([3]; read-out: EMAX 5-HT1A): 48% | Stereotypic jumping [4]: potently eliminated stereotypic jumping; also recorded: dose-dependently eliminates | Stereotypic rotational behavior, compound on its own [5]: neither (+)-5-FPT nor AMP caused stereotypic rotational behavior | MK-801-elicited stereotypic rotations ([5]; 5.6 mg/kg, MK-801 0.3 mg/kg): significantly reduced stereotypical rotations; also recorded: significantly reduces stereotypic rotations | MK-801 hyperlocomotion [6]: significantly decreased hyperlocomotion; also recorded: blocks | Amphetamine (AMP) hyperlocomotion [7]: did not reduce hyperlocomotion; also recorded: did not significantly decrease hyperlocomotion | Locomotor behavior, compound on its own [8]: without altering locomotor behavior; also recorded: did not alter locomotion; also recorded: does not alter locomotor behavior | Grooming [9]: decreasing grooming | Social interactions ([9]; six one-min observation sessions): significantly increased the number of initiated social interactions; also recorded: increases social interactions | Flat Body ([10]; mean (SEM) number of sessions of six with the behavior (score/6 possible)): 0(0) | Forepaw Tread [10, 15]: 0(0) | Head Weave [10, 15]: 0(0) | Moon Walk [10, 15]: 0.3(0.2) | Piloerection [10, 15]: 0(0) | Straub Tail [10, 15]: 0(0) | Tremor [10, 15]: 0(0) | Symptoms of serotonin syndrome, in words ([10]; highest behaviorally-effective dose tested): did not result in symptoms of serotonin syndrome | Blood-brain barrier crossing, in words ([11]; 30, 60 and 90 min after systemic administration): readily crosses the blood-brain barrier | Brain concentration [11, 16]: 1.78(0.24) μg/g | Plasma concentration [11, 16]: 0.114(0.03) μg/mL | Brain concentration [11, 17]: 2.16(0.17) μg/g | Plasma concentration [11, 17]: 0.118(0.01) μg/mL | Brain concentration ([11]; 90 min after 3.0 mg/kg subcutaneous, mean (SEM)): 1.46(0.09) μg/g | concentration at 90 min ([11]; mouse, plasma, 90 min after 3.0 mg/kg subcutaneous, mean (SEM)): 70 ng/mL | Clearance in the periphery, in words ([11]; plasma relative to brain tissue from 30 min post-administration): rapidly cleared in the periphery | Affinity at 5-HT2A receptors, in words [12]: very low | Ki [12]: 0.886 µM

CN(C)C1CCc2c(cccc2-c2ccccc2F)C1 (single isomer, unassigned; (-)) [(−)-5-FPT, 5-(2′-fluorophenyl)-N,N-dimethyl-1,2,3,4-tetrahydronaphthalen-2-amine]
Affinity at 5-HT1A receptors, in words [13]: no appreciable affinity | Ki [1]: > 10 µM | EMAX 5-HT7 [2, 14]: 29% | Functional activity at 5-HT7, in words [2]: partial agonism; also recorded: low-potency | EC50 ([2]; mean (SEM)): 0.378 µM | 5-HT7 functional potency, (−)-enantiomer less potent than (+)-isomer ([2]; ratio of EC50 values): about 11 times | Higher affinity than (+)-5-FPT at human 5-HT2A receptors [12]: ~8 fold | Ki [12]: 0.119 µM
